Reference: patent US20230218644A1, “COMPOUNDS FOR USE IN THE TREATMENT OF VIRAL INFECTIONS BY RESPIRATORY SYNDROME-RELATED CORONAVIRUS” (SOM INNOVATION BIOTECH, S.A., priority 2020, published 2023)

Assays:
[1] = target: SARS-CoV-2 3CLpro (Severe acute respiratory syndrome coronavirus 2, UniProt P0DTD1); assay: biochemical; assay type: biochemical; details: for inhibition activity against SARS-CoV-2 3CLpro in vitro (in words): FRET assay, 30 tested compounds
[2] = tested on: SARS-CoV-2; assay: microbe, parasite or virus in culture; assay type: cell-based; details: Severe acute respiratory syndrome coronavirus 2, Vero C1008, read-out: IC50 of inhibition of cell infection
[3] = tested on: VeroE6 cells
[4] = target: MERS-CoV 3CLpro (Middle East respiratory syndrome-related coronavirus, UniProt K9N7C7); assay: biochemical
MERS-CoV 3CLpro, sequence (K9N7C7 3248-3553 limits assumed): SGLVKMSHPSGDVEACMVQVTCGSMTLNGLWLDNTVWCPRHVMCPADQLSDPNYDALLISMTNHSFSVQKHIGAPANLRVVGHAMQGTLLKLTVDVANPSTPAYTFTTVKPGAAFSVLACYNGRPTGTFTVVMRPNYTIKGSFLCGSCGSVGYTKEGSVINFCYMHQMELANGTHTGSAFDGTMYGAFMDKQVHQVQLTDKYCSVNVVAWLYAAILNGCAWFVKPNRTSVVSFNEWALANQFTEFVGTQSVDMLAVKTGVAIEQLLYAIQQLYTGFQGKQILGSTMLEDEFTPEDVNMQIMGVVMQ

[5] = target: SARS-CoV-2 protease (Severe acute respiratory syndrome coronavirus 2, UniProt P0DTD1); details: Fu et al., Nature Comm. 2020; cited from earlier work
[6] = tested on: SARS-CoV-2 virus; details: Vero E6 cells; Choy K. et al, Antivir. Res. 2020; read-out: IC50 antiviral effect; cited from earlier work

| Compound | inhibition activity against SARS-CoV-2 3CLpro in vitro (in words) [1] | IC50 [2] [µM] | IC50 [1] [µM] | IC50 [4] [µM] | also measured |
| --- | --- | --- | --- | --- | --- |
| CCOC(=O)/C=C/[C@H](C[C@@H]1CCNC1=O)NC(=O)[C@@H](CC(=O)[C@@H](NC(=O)c1cc(C)on1)C(C)C)Cc1ccc(F)cc1 | not active in vitro | – | – | – | – |
| CCN(CC)CCCC(C)Nc1ccnc2cc(Cl)ccc12 (racemic) [chloroquine, (RS)-N′-(7-chloroquinolin-4-yl)-N,N-diethyl-pentane-1,4-diamine] | – | ~12 | – | – | cytotoxicity / cell viability (in words) [3]: significant cytotoxicity |
| O=C(/C=C/c1ccc(O)c(O)c1)OC1CC(OC(=O)/C=C/c2ccc(O)c(O)c2)(C(=O)O)CC(O)C1O (stereo not drawn) [CYNARIN, 1,3-bis[[(E)-3-(3,4-dihydroxyphenyl)prop-2-enoyl]oxy]-4,5-dihydroxycyclohexane-1-carboxylic acid] | active in vitro | – | 1.81 | 16.7 | – |
| CN(C)[C@@H]1C(O)=C(C(N)=O)C(=O)[C@@]2(O)C(O)=C3C(=O)c4c(O)c(NC(=O)CN5CCCC5)cc(F)c4C[C@H]3C[C@@H]12 [ERAVACYCLINE diHcl, (4S,4aS,5aR,12aS)-4-(Dimethylamido)-7-fluoro-3,10,12,12a-tetrahydroxy-1,11-dioxo-9-[(1-pyrrolidinylacetyl)amino]-1,4,4a,5,5a,6,11,12a-octahydro-2-tetracenecarboxamide] | active in vitro | 30.6 | 1.65 | 16.4 | cytotoxicity / cell viability (in words) [3]: without affecting cell viability |
| COc1cccc(OCCCN)c1-c1cc(Nc2cnc(C#N)cn2)n[nH]1 [PREXASERTIB diHCl, 5-((5-(2-(3-Aminopropoxy)-6-methoxyphenyl)-1H-pyrazol-3-yl)amino)-2-pyrazinecarbonitrile] | active in vitro | – | 2 | 12.4 | – |
| CC(C)C[C@H](NC(=O)[C@H](CCc1ccccc1)NC(=O)CN1CCOCC1)C(=O)N[C@@H](Cc1ccccc1)C(=O)N[C@@H](CC(C)C)C(=O)[C@@]1(C)CO1 [carfilzomib] | – | – | – | – | inhibition of SARS-CoV-2 protease (in words) [5]: failed to inhibit |
| CC[C@H]1CN2CCc3cc(OC)c(OC)cc3[C@@H]2C[C@@H]1C[C@H]1NCCc2cc(OC)c(OC)cc21 [emetine] | – | – | – | – | IC50 [6]: 0.46 µM |
| COC(=O)C[C@](O)(CCCC(C)(C)O)C(=O)O[C@@H]1C(OC)=C[C@]23CCCN2CCc2cc4c(cc2[C@H]13)OCO4 [homorringtonine, 1-((1S,3aR,14bS)-2-Methoxy-1,5,6,8,9,14b-hexahydro-4H-cyclopenta(a)(1,3)dioxolo(4,5-h)pyrrolo(2,1-b)(3)benzazepin-1-yl) 4-methyl (2R)-2-hydroxy-2-(4-hydroxy-4-methylpentyl)butanedioate] | – | – | – | – | IC50 [6]: 2.55 µM |
| CCC(CC)COC(=O)[C@H](C)N[P@](=O)(OC[C@H]1O[C@@](C#N)(c2ccc3c(N)ncnn23)[C@H](O)[C@@H]1O)Oc1ccccc1 [remdesivir, (2S)-2-{(2R,3S,4R,5R)-[5-(4-Aminopyrrolo[2,1-f][1,2,4]triazin-7-yl)-5-cyano-3,4-dihydroxy-tetrahydro-furan-2-ylmethoxy]phenoxy-(S)-phosphorylamino}propionic acid 2-ethyl-butyl ester] | – | ~12 | – | – | – |
